Source: patent US20050106639A1, “Method for quantification of AKT protein expression” (Ventana Medical Systems, Inc., priority 2000, published 2005)

Key:
Assay type in all cases: cell-based
AKT-2 = experiment: Immunoprecipitation and anti-phospho-Akt Western blot, AKT-2
Procedure: (§1) MDA-MB-435 and MDA-MB-435/HER-2 cells were obtained from Dr. Yu at the UTMD Anderson Cancer Center, Houston, Tex. Cells were grown in RPMI 1640 supplemented as above in 8% CO2 at 37° C. Western blotting was done as follows. Cells were lysed in lysis buffer (50 mM Tris-HCl, pH 7.4, 150 mM sodium chloride, 1 mM EDTA, 1% Nonidet P-40, 1 mM sodium orthovanadate, 1 mM sodium fluoride, 1 mM phenylmethylsulfonyl fluoride, 2 ug/ml pepstatin, 2 ug/ml leupeptin, 2 ug/ml aprotinin), centrifuged at 4° C. for 5 min at 6500 g, and protein concentration was determined with a BioRad Protein Assay Kit (BioRad, Hercules, Cailf.). Proteins were separated by electrophoresis using a Bis-Tris NuPAGE system with 1× MOPS running buffer (Novex, San Diego, Cailf.) and transferred to Hybond C-extra membrane (Amersham Pharmacia Biotech, Piscataway, N.J.). Membranes were blocked with non-fat dry milk, incubated with the appropriate antibodies, washed with PBS (phosphate buffered saline) and incubated with horseradish peroxidase-conjugated secondary antibody. […]
(§2) The activated (phosphorylated) state of total AKT (AKT-1 plus AKT-2) in cells over-expressing HER-2/neu was measured to study the functional significance of c-akt in HER-2/neu over-expressing cells and cancers. […] Activated AKT was determined by antibodies that specifically recognize the phosphorylated state of AKT protein. […]

AKT-1 = experiment: Immunoprecipitation and anti-phospho-Akt Western blot, AKT-1
Procedure: as §1, §2

[1] = test system: total AKT (AKT-1 plus AKT-2); experiment: Western blot of activated (phosphorylated) total AKT in HER-2/neu over-expressing cells; details: SKBR3, BR474, AU565 cells, Heregulin 10 ng/ml or Herceptin 20 mg/ml
Procedure: as §1, §2

[2] = SKBR3, BR474, AU565 cells, Heregulin 10 ng/ml or Herceptin 20 mg/ml, Western blot

## Heregulin
AKT-2; [2]
  level of AKT-2 phosphorylation after treatment: remained high
AKT-2; exposure for 3 days
  phosphorylated state of AKT-2: did not affect
AKT-1; [2]
  AKT-1 phosphorylation: increased
AKT-1; exposure for 3 days
  phosphorylated state of AKT-1: down-regulation
[1]
  phosphorylation of total AKT: increased
